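Briefly, cells in 96-well plates were exposed to five compound concentrations for 48 h, and endpoints were estimated by linear interpolation. At the TGI there is no net growth.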
Tests used:
Assay in all cases: NCI tumour cell line growth inhibition, 48 h
[1] = tested on: NCI-H226 lung
[2] = tested on: DU-145 prostate
[3] = tested on: U251 CNS
[4] = tested on: SNB-19 CNS
[5] = tested on: MCF7 breast
[6] = tested on: SF-295 CNS
[7] = tested on: MDA-MB-435
[8] = tested on: NCI-H460 lung
[9] = tested on: HCT-15 colon
[10] = tested on: 786-0 renal
[11] = tested on: SK-OV-3 ovarian
[12] = tested on: RXF 393 renal
[13] = tested on: LOX IMVI melanoma
[14] = tested on: PC-3 prostate
[15] = tested on: SNB-75 CNS
[16] = tested on: NCI-H23 lung
[17] = tested on: KM12 colon
[18] = tested on: HS 578T breast
[19] = tested on: CCRF-CEM leukemia
[20] = tested on: MDA-N
[21] = tested on: ACHN renal
[22] = tested on: SK-MEL-2 melanoma
[23] = tested on: SF-539 CNS
[24] = tested on: OVCAR-3 ovarian
[25] = tested on: UACC-257 melanoma
[26] = tested on: RPMI-8226 leukemia
[27] = tested on: UACC-62 melanoma
[28] = tested on: HT29 colon
[29] = tested on: MDA-MB-231 breast
[30] = tested on: HOP-62 NSCLC
[31] = tested on: EKVX NSCLC
[32] = tested on: OVCAR-4 ovarian
[33] = tested on: OVCAR-8 ovarian
[34] = tested on: A549 NSCLC
[35] = tested on: SR leukemia
[36] = tested on: IGROV1 ovarian
[37] = tested on: NCI/ADR-RES ovarian
[38] = tested on: CAKI-1 renal
[39] = tested on: SN12C renal
[40] = tested on: SK-MEL-28 melanoma
[41] = tested on: SF-268 CNS
[42] = tested on: HCC-2998 colon
[43] = tested on: MALME-3M melanoma
[44] = tested on: OVCAR-5 ovarian
[45] = tested on: BT-549 breast
[46] = tested on: MOLT-4 leukemia
[47] = tested on: SW-620 colon
[48] = tested on: HOP-92 NSCLC
[49] = tested on: HCT-116 colon
[50] = tested on: SK-MEL-5 melanoma
[51] = tested on: NCI-H522 lung
[52] = tested on: UO-31 renal
[53] = tested on: T-47D breast
[54] = tested on: TK-10 renal

`COCOc1c(C(O[Si](C)(C)C(C)(C)C)c2cnc(Sc3ccccc3)n2C)ccc(OC)c1OC` (centres undefined) was tested, and the TGI [1] was 4.14 µM, the TGI [2] was over 100 µM and the TGI [3] was 3.1 µM. It also gave a TGI [4] of 6.27 µM, a TGI [5] of 3.8 µM and a TGI [6] of 6.18 µM. It also gave a TGI [7] of 3.26 µM, a TGI [8] of 3.02 µM and a TGI [9] of 4.32 µM. The TGI [10] was 4.41 µM, the TGI [11] was 7.74 µM and the TGI [12] was 2.71 µM. For the same compound, the TGI [13] was 3.23 µM, the TGI [14] was 3.04 µM and the TGI [15] was 5.77 µM. The TGI [16] was over 100 µM, the TGI [17] was 3.93 µM and the TGI [18] was 6.17 µM. The TGI [19] was 9 µM, the TGI [20] was 3.34 µM and the TGI [21] was 6.98 µM. The TGI [22] was 3.05 µM, the TGI [23] was 3.71 µM and the TGI [24] was 3.22 µM. For the same compound, the TGI [25] was 4.6 µM, the TGI [26] was 4.77 µM and the TGI [27] was 3.91 µM. It also gave a TGI [28] of 4.15 µM, a TGI [29] of 3.19 µM and a TGI [30] of 3.61 µM. The TGI [31] was 7.65 µM, the TGI [32] was 16.2 µM and the TGI [33] was 2.74 µM. For the same compound, the TGI [34] was 4.33 µM, the TGI [35] was 7.74 µM and the TGI [36] was 5.01 µM. For the same compound, the TGI [37] was 2.75 µM, the TGI [38] was 10.1 µM and the TGI [39] was 3.31 µM. For the same compound, the TGI [40] was 4.18 µM, the TGI [41] was 3.34 µM and the TGI [42] was 3.7 µM. For the same compound, the TGI [43] was 8.93 µM, the TGI [44] was over 100 µM and the TGI [45] was 4.02 µM. For the same compound, the TGI [46] was 8.95 µM, the TGI [47] was 3.8 µM and the TGI [48] was 6.36 µM. The TGI [49] was 2.95 µM, the TGI [50] was 3.21 µM and the TGI [51] was 3.58 µM. For the same compound, the TGI [52] was 3.32 µM, the TGI [53] was over 100 µM and the TGI [54] was 16.3 µM.

Source: PubChem BioAssay (NCI)
